System: NCI-H23 complex spheroids with HUVEC/MSC, viability
Assay: Anticancer human tumor NCI-H23 cell line growth inhibition [RAS];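 note: spheroids exposed to compound for 7 days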
Settings: for IC50: curve of first compound; for viability, T/C: stronger effect = lower value; active = viability on the fitted dose curve at most 10% of control; inactive = the rest
Source text: RAS pathway inhibitors in Combinations in Complex Spheroids
A high-throughput screen of multi-cell type tumor spheroids was designed to identify active combinations of RAS pathway inhibitors and targeted small molecules. Complex spheroids include a stromal component modeled by human endothelial cells (HUVEC) and fibroblasts modeled by human mesenchymal stem cells (MSCs). The concentration ranges selected for each drug and investigational agent were based upon clinically achievable concentrations if the clinical Cmax of the agent was known.
Compounds. The drugs and investigational agents: abemaciclib (NSC768073), cobimetinib (NSC768068), divarasib (GDC6063, NSC841802), docetaxel (NSC628503), GDC-1971 (RLY-1971, NSC841576), gemcitabine (NSC613327), inavolisib (NSC800729), ipatasertib (NSC767898), KB-0742 (NSC834161), MRTX-1133 (NSC836407), osimertinib (NSC779217), RMC-4630 (NSC839698), RMC-6236 (NSC851965), RMC-6291 (NSC852671), Ro-3306 (NSC812927), sapanisertib (NSC764658), SN-38 (NSC673596), staurosporine (NSC755774), SY5609 (NSC837396), and tovorafenib (DAY101, NSC766906), were obtained from the National Cancer Institute (NCI) Developmental Therapeutics Program Chemical Repository. The FDA-approved anticancer drug set is available from the NCI Developmental Therapeutics Program. […] The stock solutions were prepared in dimethyl sulfoxide (DMSO, Sigma-Aldrich, St. Louis, MO, cat. D2650) at 800-fold the tested concentration and stored at -70 degrees C prior to their use. All drugs and investigational agents were tested over a range starting from a high concentration at or near the clinical Cmax and decreasing in half-log increments. If the clinical Cmax for an agent had not been determined, the highest concentration tested was 10 microM.
Cell Culture. All cells were maintained in an incubator at 37 degrees C and 5% CO2 with 95% humidity. The PDC lines were cultured according to standard operating procedures established by the NCI PDMR. All PDCs were thawed and cultured in Matrigel-coated flasks prepared with a working solution of 1X Ham's F-12 nutrient mix, without supplementation (Invitrogen, Waltham, MA, cat. 11765054), 100 U/mL penicillin-streptomycin (Invitrogen, cat. 15140122), and 2.5% Matrigel (Corning Inc., Corning, NY, cat. 354248) for the first three passages. The 362531-283-R-J2-PDC and 782815-120-R-J1-PDC lines were cultured in 6C/Colon 1B media, which includes advanced DMEM/F-12 (Thermo Fisher Scientific, cat. 12634028), 10 mM HEPES (Thermo Fisher Scientific, cat. 15630080), 1X GlutaMAX supplement (Thermo Fisher Scientific, cat. 35050061), 0.1 mg/mL primocin (InvivoGen, San Diego, CA, cat. ant-pm-2), 10% defined fetal bovine serum, heat inactivated (HyClone Laboratories Inc., Logan, UT, cat. SH30070.03HI), 50% L-WRN conditioned media (ATCC, cat. CRL-3276), 1.25 mM N-Acetyl-L-cysteine (Sigma-Aldrich, cat. A9165), 10 mM nicotinamide (Sigma-Aldrich, cat. N0636), 1X B-27 supplement (Thermo Fisher Scientific, cat. 17504044), 1X N-2 supplement (Thermo Fisher Scientific, cat. 17502048), 50 ng/mL human EGF (Thermo Fisher Scientific, cat. PHG0311), and 10 microM Y-27632 dihydrochloride (Tocris Bioscience, cat. 1254). The K12877-001-R-J1-PDC line was cultured in 6I media, which includes all 6C/Colon 1B media plus 10 ng/mL human FGF-10 (PeproTech, cat. 100-26), 1 ng/mL human FGF-2 (PeproTech, cat. 100-18B), 1 µM prostaglandin E2 (Tocris Bioscience, cat. 2296), […] hydrocortisone (Sigma-Aldrich, cat. H4001), and […] bovine insulin (Sigma-Aldrich, cat. I6634). The K86415-001-R-J1-PDC line was cultured in 6D media, which includes all 6C/Colon 1B media components minus the L-WRN conditioned media. The 485176-168-R4-J1-PDC was cultured in PANC media, which includes all 6C/Colon 1B media plus 100 ng/mL human FGF-10 (PeproTech, cat. 100-26), 500 nM SB-431542 (Selleckchem, cat. S1067), and 10 nM gastrin (Tocris Bioscience, cat. 3006). […]

CC(C)n1nc(-c2ccc3oc(N)nc3c2)c2c(N)ncnc21 + C#Cc1c(F)ccc2cc(O)cc(-c3ncc4c(N5CC6CCC(C5)N6)nc(OCC56CCCN5CC(F)C6)nc4c3F)c12
0.0148 µM: IC50 (second compound 1 µM)
0.0539 µM: IC50 (second compound 0.0316 µM)
0.00286 µM: IC50 (second compound 3.16 µM)
0.0432 µM: IC50 (second compound 0.1 µM)
inactive: viability, T/C (second compound 0.0316 µM, first compound 0.000316 µM) 105% | viability, T/C (second compound 0.0316 µM, first compound 0.001 µM) 114% | viability, T/C (second compound 0.0316 µM, first compound 0.00316 µM) 89.6% | viability, T/C (second compound 0.0316 µM, first compound 0.01 µM) 73.9% | viability, T/C (second compound 0.0316 µM, first compound 0.0316 µM) 51.4% | viability, T/C (second compound 0.0316 µM, first compound 0.1 µM) 47.1% | viability, T/C (second compound 0.1 µM, first compound 0.000316 µM) 108% | viability, T/C (second compound 0.1 µM, first compound 0.001 µM) 113% | viability, T/C (second compound 0.1 µM, first compound 0.00316 µM) 84.7% | viability, T/C (second compound 0.1 µM, first compound 0.01 µM) 71.4% | viability, T/C (second compound 0.1 µM, first compound 0.0316 µM) 53.2% | viability, T/C (second compound 0.1 µM, first compound 0.1 µM) 42.8% | viability, T/C (second compound 0.316 µM, first compound 0.000316 µM) 104% | viability, T/C (second compound 0.316 µM, first compound 0.001 µM) 106% | viability, T/C (second compound 0.316 µM, first compound 0.00316 µM) 83.7% | viability, T/C (second compound 0.316 µM, first compound 0.01 µM) 61.6% | viability, T/C (second compound 0.316 µM, first compound 0.0316 µM) 46.1% | viability, T/C (second compound 0.316 µM, first compound 0.1 µM) 39.4% | viability, T/C (second compound 1 µM, first compound 0.000316 µM) 83.6% | viability, T/C (second compound 1 µM, first compound 0.001 µM) 93.1% | viability, T/C (second compound 1 µM, first compound 0.00316 µM) 72.8% | viability, T/C (second compound 1 µM, first compound 0.01 µM) 56.4% | viability, T/C (second compound 1 µM, first compound 0.0316 µM) 39.6% | viability, T/C (second compound 1 µM, first compound 0.1 µM) 32.3% | viability, T/C (second compound 3.16 µM, first compound 0.000316 µM) 56.4% | viability, T/C (second compound 3.16 µM, first compound 0.001 µM) 60.4% | viability, T/C (second compound 3.16 µM, first compound 0.00316 µM) 48.4% | viability, T/C (second compound 3.16 µM, first compound 0.01 µM) 38.3% | viability, T/C (second compound 3.16 µM, first compound 0.0316 µM) 36.8% | viability, T/C (second compound 3.16 µM, first compound 0.1 µM) 22.9% | viability, T/C (second compound 10 µM, first compound 0.000316 µM) 38.8% | viability, T/C (second compound 10 µM, first compound 0.001 µM) 38.6% | viability, T/C (second compound 10 µM, first compound 0.00316 µM) 28.8% | viability, T/C (second compound 10 µM, first compound 0.01 µM) 26.9% | viability, T/C (second compound 10 µM, first compound 0.0316 µM) 24.1% | viability, T/C (second compound 10 µM, first compound 0.1 µM) 17%
< 0.000316 µM: IC50 (second compound 10 µM)
0.0222 µM: IC50 (second compound 0.316 µM)

Source: PubChem BioAssay AID2060885 (Molecular Pharmacology Branch, DTP, NCI, 2025)
